Key:
[1] = Example 1: serum hormone levels on the regimen; conditions: Example 1 regimen; for bioavailability: female, human, in vivo
Description: The estrogen consisted of conjugated equine estrogen (Premarin® tablets) at a daily dose of 0.625 to 2.5 mg. […] The duration of coadministration was 12 weeks.

[2] = biological target: T1, sex hormone binding globulin (SHBG) (Homo sapiens, UniProt P04278); conditions: adapted from Dunn et al. 1981; human plasma; cited from earlier work
T1 sequence (P04278 30-402): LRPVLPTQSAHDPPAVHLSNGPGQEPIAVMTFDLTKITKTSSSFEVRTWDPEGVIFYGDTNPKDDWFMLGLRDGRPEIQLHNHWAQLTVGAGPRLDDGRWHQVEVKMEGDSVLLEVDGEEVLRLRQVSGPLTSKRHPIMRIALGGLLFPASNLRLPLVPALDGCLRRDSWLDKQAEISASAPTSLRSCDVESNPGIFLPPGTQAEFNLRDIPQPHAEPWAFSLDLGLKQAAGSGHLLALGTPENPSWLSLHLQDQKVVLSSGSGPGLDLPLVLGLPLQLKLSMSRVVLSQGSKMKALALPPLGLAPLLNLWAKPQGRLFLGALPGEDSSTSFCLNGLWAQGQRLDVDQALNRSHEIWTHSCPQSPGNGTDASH

[3] = tested on: sexual function, mood and well-being; experiment: Example 1: 12-week coadministration of oral estrogen and transdermal testosterone, sexual function, mood and well-being; assay type: in vivo, human; conditions: transdermal patch 300 mcg/day twice weekly plus oral Premarin 0.625 to 2.5 mg daily; after 12 weeks; surgically menopausal women
Source text: The duration of coadministration was 12 weeks.

[4] = Predicted change in total testosterone, power-law regression of FIG. 1; conditions: for concentration at 3.5 day: human, serum, other: transdermal
[5] = Pharmacokinetic study of testosterone transdermal matrix patch in surgically menopausal women: total and free testosterone; assay type: in vivo, human; conditions: 300 mcg/day patch; for concentration at 3.5 day: female, human, serum, time-average change from baseline, mean±SEM
Description: One group had received no estrogen replacement therapy (ERT) for at least one month, the second group was receiving transdermal estadiol (E2) at a dosage of 0.1 mg/day, and the third group was receiving oral conjugated equine estrogens (CEE) at a dosage of 1.25 mg/day. […] The resultant hormone data (mean±SEM) for the three groups of surgically menopausal women participating in the clinical study is summarized in Table 2 below.
It should be noted that the normal range for SHBG levels is 36 to 185 nmol/L using the Endocrine Sciences assay.

[6] = Estimated testosterone delivery rate for a given increase in free testosterone, power-law regression of FIG. 2; assay type: in vivo, human
[7] = Change in FT 1 pg/mL, SHBG 50 nmol/L
[8] = Change in FT 1 pg/mL, SHBG 84 nmol/L
[9] = Change in FT 1 pg/mL, SHBG 100 nmol/L
[10] = Change in FT 1 pg/mL, SHBG 200 nmol/L
[11] = Change in FT 1 pg/mL, SHBG 400 nmol/L
[12] = Change in FT 1 pg/mL, SHBG 600 nmol/L
[13] = Change in FT 1 pg/mL, SHBG 700 nmol/L
[14] = Change in FT 2.5 pg/mL, SHBG 50 nmol/L
[15] = Change in FT 2.5 pg/mL, SHBG 84 nmol/L
[16] = Change in FT 2.5 pg/mL, SHBG 100 nmol/L
[17] = Change in FT 2.5 pg/mL, SHBG 200 nmol/L
[18] = Change in FT 2.5 pg/mL, SHBG 400 nmol/L
[19] = Change in FT 2.5 pg/mL, SHBG 600 nmol/L
[20] = Change in FT 2.5 pg/mL, SHBG 700 nmol/L
[21] = Change in FT 5 pg/mL, SHBG 50 nmol/L
[22] = Change in FT 5 pg/mL, SHBG 84 nmol/L
[23] = Change in FT 5 pg/mL, SHBG 100 nmol/L
[24] = Change in FT 5 pg/mL, SHBG 200 nmol/L
[25] = Change in FT 5 pg/mL, SHBG 400 nmol/L
[26] = Change in FT 5 pg/mL, SHBG 600 nmol/L
[27] = Change in FT 5 pg/mL, SHBG 700 nmol/L
[28] = Change in FT 10 pg/mL, SHBG 50 nmol/L
[29] = Change in FT 10 pg/mL, SHBG 84 nmol/L
[30] = Change in FT 10 pg/mL, SHBG 100 nmol/L
[31] = Change in FT 10 pg/mL, SHBG 200 nmol/L
[32] = Change in FT 15 pg/mL, SHBG 50 nmol/L
[33] = Change in FT 15 pg/mL, SHBG 84 nmol/L
[34] = Change in FT 15 pg/mL, SHBG 100 nmol/L
[35] = Change in FT 15 pg/mL, SHBG 200 nmol/L
[36] = Change in FT 15 pg/mL, SHBG 400 nmol/L
[37] = Change in FT 15 pg/mL, SHBG 600 nmol/L
[38] = Change in FT 15 pg/mL, SHBG 700 nmol/L

C[C@]12CC[C@H]3[C@@H](CCC4=CC(=O)CC[C@@]43C)[C@@H]1CC[C@@H]2O [testosterone, (17)-17-Hydroxyandrost-4-en-3-one]
women with free testosterone level below 6.8 pg/mL [1]: 78% | women with free testosterone level below 15 pg/mL [1]: 97% | women with total testosterone levels in excess of 80 ng/dL [1]: 73% | bioavailability ([1]; women with bioavailable testosterone level below 12.7 ng/dL): 68% | bioavailability ([1]; women with bioavailable testosterone level below 35 ng/dL): 97% | K (binding affinity constant for SHBG) [2]: 1600 10^6 Liter/mole | sexual function, mood and well-being in comparison to conjugated equine estrogen alone [3]: improved sexual function, mood and well-being | Predicted Changes in Total Testosterone [4, 7]: 9 ng/dL | Predicted Changes in Total Testosterone [4, 8]: 12 ng/dL | Predicted Changes in Total Testosterone [4, 9]: 14 ng/dL | Predicted Changes in Total Testosterone [4, 10]: 23 ng/dL | Predicted Changes in Total Testosterone [4, 11]: 37 ng/dL | Predicted Changes in Total Testosterone [4, 12]: 49 ng/dL | Predicted Changes in Total Testosterone [4, 13]: 55 ng/dL | Predicted Changes in Total Testosterone [4, 14]: 21 ng/dL | Predicted Changes in Total Testosterone [4, 15]: 31 ng/dL | Predicted Changes in Total Testosterone [4, 16]: 35 ng/dL | Predicted Changes in Total Testosterone [4, 17]: 57 ng/dL | Predicted Changes in Total Testosterone [4, 18]: 92 ng/dL | Predicted Changes in Total Testosterone [4, 19]: 123 ng/dL | Predicted Changes in Total Testosterone [4, 20]: 137 ng/dL | Predicted Changes in Total Testosterone [4, 21]: 43 ng/dL | Predicted Changes in Total Testosterone [4, 22]: 61 ng/dL | Predicted Changes in Total Testosterone [4, 23]: 69 ng/dL | Predicted Changes in Total Testosterone [4, 24]: 113 ng/dL | Predicted Changes in Total Testosterone [4, 25]: 184 ng/dL | Predicted Changes in Total Testosterone [4, 26]: 245 ng/dL | Predicted Changes in Total Testosterone [4, 27]: 273 ng/dL | Predicted Changes in Total Testosterone [4, 28]: 85 ng/dL | Predicted Changes in Total Testosterone [4, 29]: 123 ng/dL | Predicted Changes in Total Testosterone [4, 30]: 139 ng/dL | Predicted Changes in Total Testosterone [4, 31]: 226 ng/dL | Predicted Changes in Total Testosterone [4, 32]: 128 ng/dL | Predicted Changes in Total Testosterone [4, 33]: 184 ng/dL | Predicted Changes in Total Testosterone [4, 34]: 208 ng/dL | Predicted Changes in Total Testosterone [4, 35]: 339 ng/dL | Predicted Changes in Total Testosterone [4, 36]: 553 ng/dL | Predicted Changes in Total Testosterone [4, 37]: 736 ng/dL | Predicted Changes in Total Testosterone [4, 38]: 820 ng/dL | concentration at 3.5 day ([4]; 1313 mcg/day): 3.68 ng/mL | concentration at 3.5 day ([4]; 1553 mcg/day): 4.9 ng/mL | concentration at 3.5 day ([4]; 1656 mcg/day): 5.47 ng/mL | concentration at 3.5 day ([4]; 2484 mcg/day): 8.2 ng/mL | mean increase in free serum testosterone lower in oral estrogen group than other two groups [5]: approximately 40% | mean increase in total serum testosterone greater in oral estrogen group than other two groups ([5]; time-averaged change from baseline): approximately 30% | concentration at 3.5 day ([5]; other: transdermal patch, with Transdermal E2 0.1 mg/day, n=12, read-out: Changes in Free T): 0.0042 ± 0.0007 ng/mL | concentration at 3.5 day ([5]; other: transdermal patch, with Transdermal E2 0.1 mg/day, n=12, read-out: Changes in Total T): 0.536 ± 0.072 ng/mL | concentration at 3.5 day ([5]; other: transdermal patch, 300 mcg/day, No ERT, n=19, 3.5 day application, read-out: Changes in Total T): 0.572 ± 0.044 ng/mL | concentration at 3.5 day ([5]; other: transdermal patch, 300 mcg/day, No ERT, n=19, read-out: Changes in Free T): 0.0046 ± 0.0004 ng/mL | concentration at 3.5 day ([5]; po, with Oral CEE 1.25 mg/day, n=13, read-out: Changes in Free T): 0.00256 ± 0.0003 ng/mL | concentration at 3.5 day ([5]; po, with Oral CEE 1.25 mg/day, n=13, read-out: Changes in Total T): 0.708 ± 0.096 ng/mL | Estimated Delivery Rate [6, 7]: 55 µg/day | Estimated Delivery Rate [6, 8]: 69 µg/day | Estimated Delivery Rate [6, 9]: 74 µg/day | Estimated Delivery Rate [6, 10]: 98 µg/day | Estimated Delivery Rate [6, 11]: 131 µg/day | Estimated Delivery Rate [6, 12]: 155 µg/day | Estimated Delivery Rate [6, 13]: 166 µg/day | Estimated Delivery Rate [6, 14]: 139 µg/day | Estimated Delivery Rate [6, 15]: 172 µg/day | Estimated Delivery Rate [6, 16]: 185 µg/day | Estimated Delivery Rate [6, 17]: 246 µg/day | Estimated Delivery Rate [6, 18]: 328 µg/day | Estimated Delivery Rate [6, 19]: 388 µg/day | Estimated Delivery Rate [6, 20]: 414 µg/day | Estimated Delivery Rate [6, 21]: 277 µg/day | Estimated Delivery Rate [6, 22]: 344 µg/day | Estimated Delivery Rate [6, 23]: 369 µg/day | Estimated Delivery Rate [6, 24]: 492 µg/day | Estimated Delivery Rate [6, 25]: 656 µg/day | Estimated Delivery Rate [6, 26]: 111 µg/day | Estimated Delivery Rate [6, 27]: 828 µg/day | Estimated Delivery Rate [6, 28]: 554 µg/day | Estimated Delivery Rate [6, 29]: 687 µg/day | Estimated Delivery Rate [6, 30]: 739 µg/day | Estimated Delivery Rate [6, 31]: 985 µg/day | Estimated Delivery Rate ([6]; Change in FT 10 pg/mL, SHBG 400 nmol/L): 1313 µg/day | Estimated Delivery Rate ([6]; Change in FT 10 pg/mL, SHBG 600 nmol/L): 1553 µg/day | Estimated Delivery Rate ([6]; Change in FT 10 pg/mL, SHBG 700 nmol/L): 1656 µg/day | Estimated Delivery Rate [6, 32]: 831 µg/day | Estimated Delivery Rate [6, 33]: 1031 µg/day | Estimated Delivery Rate [6, 34]: 1108 µg/day | Estimated Delivery Rate [6, 35]: 1477 µg/day | Estimated Delivery Rate [6, 36]: 1969 µg/day | Estimated Delivery Rate [6, 37]: 2330 µg/day | Estimated Delivery Rate [6, 38]: 2484 µg/day

Source: patent US8551516B2, “Administration of non-oral androgenic steroids to women” (Actavis, Inc., priority 1999, dated 2013)
